The text below walks through data of PMC5469758, “Identification of an in vivo orally active dual-binding protein-protein interaction inhibitor targeting TNFα through combined in silico/in vitro/in vivo screening” (Scientific Reports, 2017).

The test system of series [1] is human TNFα induced apoptosis on the L929 cell line. The series can be described thus: Neutralization of human TNFα induced apoptosis in L929 cells (MTT). It is filed as cell-based. To be noted: L929 cells. The method, then:
80% confluent L929 cells were plated in flat bottom plates at 4 × 10^5 cells per well in 100 μl of DMEM medium containing 10% FBS, 2 mM L-Glutamine, 100 U/ml Penicillin − 100 μg/ml Streptomycin and incubated for one night at 37 °C, 5% CO2. TNFα or TNFβ (150 pg/ml), Actinomycin D (4 μg/ml) and the compounds at different concentrations (ranging from 100 μM to 0.8 μM) were mixed in 150 μl DMEM medium 1% FBS, 2 mM L-Glutamine, 100 U/ml Penicillin−100 μg/ml Streptomycin in U-bottom plates. After two hours incubation at 37 °C, 5% CO2, 100 μl of the mix was added to the plated cells and incubated at 37 °C, 5% CO2 for 24 hours. Supernatants were discarded and 100 μl of MTT at 0.5 mg/ml were added to wells. After two hours, supernatants were discarded and 200 μl of DMSO were then added. Plates were read at 570 nm with a spectrophotometer providing the optical density (OD) of each well. The percentage of neutralization of TNFα by a compound was calculated using equation 3:3 %Neutra=ODcompound−ODTNFα/ODcells−ODTNFα×100
An IC50 could be computed from the percentage of neutralization for each compound.

Series [2] relates to TNFα induced NF-κB activation in HEK cells. The series can be described thus: HEK-Blue TNFα NF-κB secreted embryonic alkaline phosphatase reporter assay. It counts as cell-based, human. To be noted: HEK cells. The method, then: 80% confluent HEK-Blue™ TNFα were plated in flat bottom plates at 5 × 10^4 per well in 100 μl of DMEM containing 2 mM L-Glutamine, 100 U/ml Penicillin − 100 μg/ml Streptomycin and incubated at 37 °C, 5% CO2. Serial dilutions of compounds (ranging from 100 μM to 0.8 μM) were mixed with 400 pg/ml of human TNFα in DMEM containing 2% of FBS, 2 mM L-Glutamine, 100 U/ml Penicillin−100 μg/ml Streptomycin in U-bottom plates. After two hours of incubation at 37 °C, 5% CO2, 100 μl of the mix was added to the plated cells and incubated 24 hours at 37 °C, 5% CO2. 20 μl of supernatants were incubated for 3 hours with 180 μl of QUANTI-Blue™ to reveal secretion of phosphatase alcaline and plates were read at 620 nm with a spectrophotometer providing the optical density (OD).
Background: In a reporter assay the amount or activity of a reporter protein is the signal.

For the next series, the target named is TNFα. The note with it: fluorescence binding assay; cited from earlier work.
Another series concerns TNFα/TNFRI. Set-up: method as in PMID 16284179. To be noted: cited from earlier work.
Details of series [3]: method as in PMID 25160057. The note with it: cited from earlier work.
The test system of a further series is Balb/C mice. The series can be described thus: LPS/D-Galactosamine induced lethal shock (TNFα-dependent hepatic shock model). It is filed as in vivo. The note with it: livers eight hours after LPS/D-Galactosamine. The method, then:
7 weeks-old Balb/C mice were force-fed with 100 μl of a solution of DMSO containing various doses of compound 1 (5 mg down to 0.5 mg) eight hours before receiving an intraperitoneal injection of 200 μl of PBS containing 0.1 μg of LPS and 20 mg of D-Galactosamine. A control group (DMSO) was force-fed with 100 μl of a solution of DMSO alone eight hours before to be injected with 200 μl of LPS/D-Galactosamine solution. Mice survival was monitored for 48 hours after the injection of LPS/D-Galactosamine.
7 weeks-old Balb/C mice were forced-fed with a solution of DMSO containing 5 mg of compound 1 eight hours before receiving an intraperitoneal injection of 200 μl of PBS containing 0.1 μg of LPS and 20 mg of D-Galactosamine. Eight hours after LPS/D-Galactosamine injection, mice were sacrificed by cervical dislocation and livers were harvested, fixed in 4% formalin and embedded in paraffin. […] Slides were scanned with a slide scanner (Perkin Elmer) and analyzed with Pannoramic viewer (3D HISTECH).
7 weeks-old Balb/C mice were forced-fed with a solution of DMSO containing 5 mg of compound 1 eight hours before receiving an intraperitoneal injection of 200 μl of PBS containing 0.1 μg of LPS and 20 mg of D-Galactosamine. Three hours after LPS/D-Galactosamine injection, mice were anesthetized with ketamine/xylazine to recover blood by cardiac puncture. Sera were kept at −80 °C until assay.
TNFα in serum was quantified using U-CyTech biosciences kits (Utrecht, The Netherlands) according to manufacturer’s procedures.
7 weeks-old Balb/C mice were forced-fed with a solution of DMSO containing 5 mg of compound 1 eight hours before receiving an intraperitoneal injection of 200 μl of PBS containing 0.1 μg of LPS and 20 mg of D-Galactosamine. Eight hours after, mice were anesthetized by an injection of ketamine/xylazine to recover blood by cardiac puncture. Sera were kept at −80 °C until assay. Quantification of AST/ALT was performed using Architec ci 8200 analyser (Abbott) with reagent kits from Abbott.

For orientation: Kd means the concentration at which binding is half-saturated. A word on the IC50: it is the concentration that inhibits the measured activity by half. For `Cc1cc2occ(CN(C)CCN(C)Cc3cn(-c4cccc(C(F)(F)F)c4)c4ccccc34)c(=O)c2cc1C` [SPD304], the “concentration above which no cells survived (cellular toxicity)” value in series [1] is reported as “more than 30 µM”; in series [2], “more than 10 µM”. The Kd at TNFα is 5.4 ± 0.2 µM. For the same compound, in the series with TNFα/TNFRI, the IC50 was 22 µM. Besides, the “toxicity precluding in vivo use” value in series [3] was “high toxicity”.
As for etanercept, in the series with Balb/C mice, the “expression of cleaved caspase 3 in liver (immunohistochemistry)” value is recorded as “reduced expression of cleaved caspase 3”; the “liver damage and hemorrhage (H&E histopathology)” value was “reduced liver damage and hemorrhage”.
